Here are results for one compound from patent US20220265818A1, “CHIMERIC ANTIGENS FOR TREATING VIRAL INFECTION” (AKSHAYA BIO INC., priority 2019, published 2022).

Molecules are shown by their SMILES.

The subject of this test is HBV. The test can be described thus: Liver HBV DNA in HBV transgenic mice. As to conditions: ADV at 5 mg/kg/day, oral gavage.

For `CC(C)(C)C(=O)OCOP(=O)(COCCn1cnc2c(N)ncnc21)OCOC(=O)C(C)(C)C` [ADV, Adefovir dipivoxil], the “liver HBV DNA” value is reported as “reduced liver HBV DNA”.
